Experimental data: patent publication EP4088745A1, “COMPOUND FOR THE DIAGNOSIS OF CANCER” (Eberhard Karls Universität Tübingen Medizinische Fakultät, priority 2021, dated 2022)

Legend:
[1] = Serum stability analysis in human serum; assay type: in vitro ADME; settings: over a time course of 240 minutes; Fig 7 B
HCC1937 xenograft = test: PET imaging and ex vivo biodistribution in xenograft-bearing mice
Method: All animal experiments were performed according to the German animal welfare act and approved by the local authorities (Regierungsprasidium Tübingen, R3/18). Animals were housed in individually ventilated cages (IVCs, 5 mice per cage) with bedding and enrichment, and food and water was provided ad libitum. Animals were kept under isoflurane anesthetic (1.5 % in pure oxygen, 1.5 l/min) during the experiments. 1×10^7 cells in 1:1 ice-cold Matrigel (Thermo Scientific) / PBS were injected subcutaneously in the right shoulder area of 7 week-old female NOD.CB17-Prkdc^scid/J mice (n = 5). […] The mice underwent a second, 10 min static PET scan 2 h post-injection (p.i.). Mice were sacrificed by cervical dislocation, the collected organs were weighed and the tissue uptake was determined by gamma-counting (WIZARD2, PerkinElmer). PET image reconstruction and correlation with MR images was performed with Inveon Acquisition Workplace and Inveon Research Workplace, respectively, using a user-defined dynamic framing and an ordered subset expectation maximization (OSEM3D) algorithm. Regions of interest (ROIs) were drawn according to the acquired MR images and co-registered with the PET data to obtain time-activity curves (TACs).
Statistical analyses were performed with GraphPad Prism 9 using non-parametric t-tests and are represented as mean value ± standard deviation. Blood half-life was calculated using a two-phase decay fit. P-values < 0.05 were considered statistically significant according to the software (*: p < 0.05, **: p < 0.01, ***: p < 0.001, ****: p < 0.0001).

[2] = Serum stability analysis in mouse serum; assay type: in vitro ADME; settings: over a time course of 240 minutes; Fig 7 B
HCC1937 cells [3] = test: In vitro radiotracer uptake; assay type: cell-based, Human
Method: Human breast carcinoma cells (HCC1937, ACC513) were purchased from the German Collection of Microorganisms and Cell Cultures (DSMZ GmbH, Braunschweig, Germany) and cultured in Roswell Park Memorial Institute (RPMI) 1640 medium supplemented with 16 % fetal calf serum (FCS), 100 U/ml penicillin and 100 µg/ml streptomycin at 37°C under humid 5 % CO2 atmosphere. Absence of mycoplasma infection was confirmed by PCR analysis in monthly intervals.
After 30 min of incubation at 37°C, the cells were washed by vacuum filtration of medium through the plate (2×100 µl followed by 2×200 µl), the filters were transferred into tubes using a commercial punch kit (MAMP09608, Merck) and measured in a gamma counter (Wizard 2, Perkin-Elmer, Waltham, MA, USA). Experiments were performed in triplicates and the uptake was quantified as percent of added activity.

HCC1937 cells [4] = test: Competition assay of radiotracer uptake; assay type: cell-based, Human; settings: 1:2 serial dilution starting at 1µM; Fig. 11
Method: Human breast carcinoma cells (HCC1937, ACC513) were purchased from the German Collection of Microorganisms and Cell Cultures (DSMZ GmbH, Braunschweig, Germany) and cultured in Roswell Park Memorial Institute (RPMI) 1640 medium supplemented with 16 % fetal calf serum (FCS), 100 U/ml penicillin and 100 µg/ml streptomycin at 37°C under humid 5 % CO2 atmosphere. Absence of mycoplasma infection was confirmed by PCR analysis in monthly intervals. […] After 30 min of incubation at 37°C, the cells were washed by vacuum filtration of medium through the plate (2×100 µl followed by 2×200 µl), the filters were transferred into tubes using a commercial punch kit (MAMP09608, Merck) and measured in a gamma counter (Wizard 2, Perkin-Elmer, Waltham, MA, USA). Experiments were performed in triplicates and the uptake was quantified as percent of added activity.

| SMILES | Stability in human serum [1] | absolute xenograft uptake (HCC1937 xenograft; biodistribution analysis 2.5 h p.i., n = 5) [%ID/g] | calculated blood half-life (HCC1937 xenograft; blood TAC, two-phase decay fit) [min] | uptake in the brain tissue (HCC1937 xenograft; mouse, in vivo) | Stability in mouse serum [2] | uptake in HCC1937 cells (HCC1937 cells [3]; 30 min incubation at 37°C, Fig. 7A) | uptake blocked by excess olaparib and talazoparib (HCC1937 cells [3]; blocking with olaparib or talazoparib, final concentration 25 µM) | blocking of the [^18F]talazoparib signal compared to olaparib (HCC1937 cells [4]) |
| --- | --- | --- | --- | --- | --- | --- | --- | --- |
| Cn1ncnc1[C@H]1c2n[nH]c(=O)c3cc(F)cc(c23)N[C@@H]1c1ccc([18F])cc1 [[^18F] talazoparib, (8S,9R)-5-Fluoro-8-(4-^18fluorophenyl)-2,7,8,9-tetrahydro-9-(1-methyl-1H-1,2,4-triazol-5-yl)-3H-pyrido[4,3,2-de]phthalazin-3-one] | no radiometabolite was detected | 3.7 ± 0.71 | 3.3 | very low uptake | no radiometabolite was detected | high uptake | blockable to baseline |  |
| Cn1ncnc1[C@H]1c2n[nH]c(=O)c3cc(F)cc(c23)N[C@@H]1c1ccc(F)cc1 [talazoparib, (8S,9R)-5-Fluoro-8-(4-fluorophenyl)-2,7,8,9-tetrahydro-9-(1-methyl-1H-1,2,4-triazol-5-yl)-3H-pyrido[4,3,2-de]phthalazin-3-one] |  |  |  |  |  |  |  | blocked the signal more effective |
